Values after ≈ are worked out from the molar mass of the structure shown. Read-outs that look alike come from different tables or passages of the source.
Assays:
[1] = test system: PC3 grade IV prostate carcinoma; assay: LDH cytotoxicity assay, PC3 cells; type: cell-based; conditions: Homo sapiens
From the text: (§1) In the study, […] human cancer and normal cell lines were used. They were grouped as follows: prostate panel (prostate carcinoma Du145, derived from the metastatic site: brain, ATCC HTB-81; grade IV prostate carcinoma, PC3, derived from the metastatic site: bone, ATCC CRL-1435; prostate epithelial cells PNT2, ECACC 95012613), gastrointestinal panel (colorectal adenocarcinomas Caco2, ATCC HTB-37, and HT29, ATCC HTB-38; hepatocellular carcinoma HepG2, ATCC HB-8065), thyroid panel (follicular thyroid carcinoma FTC133, ECACC 94060901; undifferentiated thyroid carcinoma 8505C, ECACC 94090184). Cells were grown at 37 °C in a 5% CO2 atmosphere, with relative humidity, with culture medium DMEM/F12 (PC3, PNT2, FTC133, 8505C, HT29, and HepG2), DMEM low glucose (Du145), MEM with NEAA (Caco-2), supplemented with 10% fetal bovine serum (FBS), and appropriate antibiotics. Cells were seeded in 96-well plates (1.5 × 10^4 cells/well) and kept for 24 and 48 h. Subsequently, the culture medium was replaced with a fresh medium containing different concentrations of the tested substances from 4 to 50 µg/mL and the cells were incubated for 24 and 48 h. As a reference drug, doxorubicin was used. Cell viability was examined using the LDH assay, as previously described. The absorbance was measured at 490 nm (the reference wavelength 600 nm) with a Biotek Synergy microplate reader. Each experiment was performed in triplicate. Cytotoxicity of the samples was measured using the formula: %cytotoxicity=Asample−Aspont/Amax−Aspont×100 where: • Asample is the absorbance value for cells treated with the tested substances • Aspont is the value for spontaneous LDH release • Amax the value in cells lysed in the presence of Triton X100 • The half-maximal effective concentration value IC50, defined as the substance concentration necessary to obtain 50% of dead cells, was determined.
(§2) In the study evaluating optimization extraction conditions, the outlying values of rapanone amount in each set of parameters were removed. Thirty-two outlier values were determined using “Extreme Outlier” software (MP System Co., Kraków, Poland), with an algorithm implemented by Shoemaker and based on a robust technique proposed by Tukey. The ANOVA procedure was used to assess the impact of changing individual parameters on the amount of rapanone obtained in various extraction systems. The same statistical procedure was used to determine the regression coefficients of the primary parameters in the respective multinomial models (describing the relationship between the amount of rapanone and the experimental conditions) and to establish the statistical significance of these coefficients. […] The results with the highest number of differences were chosen as representing the combinations of parameters, (i.e., the particular variants of experimental systems), that were used giving the highest efficacy of the extraction process. IC50 values in cytotoxicity analysis were estimated using GraphPad 5 Prism. A comparison of the means in a cytotoxicity analysis was performed using one-way ANOVA followed by a posthoc Tukey test.

Du145 prostate carcinoma = assay: LDH cytotoxicity assay, Du145 cells; type: cell-based, human; conditions: for mean percentage of dead Du145 cells: 10 μg/mL, 24 h of incubation; for IC50: Homo sapiens, DU-145, LDH assay
From the text: as §1, §2

[2] = test system: PNT2 prostate epithelial cells; assay: LDH cytotoxicity assay, PNT2 cells; type: cell-based, human; conditions: for mean percentage of dead PNT2 cells: 10 μg/mL, 24 h of incubation; for IC50: Homo sapiens, PNT2 normal prostate epithelial cells, LDH assay
From the text: as §1, §2

[3] = test system: Caco-2 colorectal adenocarcinoma; assay: LDH cytotoxicity assay, Caco-2 cells; type: cell-based, human; conditions: for IC50: Homo sapiens
From the text: as §1, §2

[4] = test system: HT29 colorectal adenocarcinoma; assay: LDH cytotoxicity assay, HT29 cells; type: cell-based; conditions: Homo sapiens
From the text: as §1, §2

[5] = test system: undifferentiated thyroid carcinoma 8505C; assay: LDH cytotoxicity assay, 8505C cells; type: cell-based; conditions: Homo sapiens
From the text: as §1, §2

PC3 = conditions: cited from earlier work
[6] = test system: HepG2 hepatocellular carcinoma; assay: LDH cytotoxicity assay, HepG2 cells; type: cell-based; conditions: Homo sapiens
From the text: as §1
(§3) In the study evaluating optimization extraction conditions, the outlying values of rapanone amount in each set of parameters were removed. Thirty-two outlier values were determined using “Extreme Outlier” software (MP System Co., Kraków, Poland), with an algorithm implemented by Shoemaker and based on a robust technique proposed by Tukey. The ANOVA procedure was used to assess the impact of changing individual parameters on the amount of rapanone obtained in various extraction systems. The same statistical procedure was used to determine the regression coefficients of the primary parameters in the respective multinomial models (describing the relationship between the amount of rapanone and the experimental conditions) and to establish the statistical significance of these coefficients. […]

[7] = test system: follicular thyroid carcinoma FTC133; assay: LDH cytotoxicity assay, FTC133 cells; type: cell-based; conditions: Homo sapiens
From the text: as §1, §3

Du145 = test system: Du145; set-up: method as in earlier work; conditions: castration-resistant prostate cancer cells Du145; read-out: IC50 inhibition of proliferation, Du145; cited from earlier work
HT29 cells = conditions: cited from earlier work
[8] = set-up: method as in PMID 26252009; conditions: EZ-CyTox kit, cell line not stated, cited from earlier work
[9] = PC-3, PC3, 24 h incubation, read-out: IC50 PC3 24 h
[10] = Du145, 24 h incubation, read-out: IC50 Du145 24 h
[11] = 24 h incubation, read-out: IC50 PNT2 24 h
[12] = Caco-2, 24 h, Caco-2, 24 h incubation, read-out: IC50 Caco-2 24 h
[13] = HT-29, HT29, 24 h incubation, read-out: IC50 HT29 24 h
[14] = 24 h incubation, read-out: IC50 8505C 24 h
[15] = PC-3, PC3, 48 h incubation, read-out: IC50 PC3 48 h
[16] = Du145, 48 h incubation, read-out: IC50 Du145 48 h
[17] = 48 h incubation, read-out: IC50 PNT2 48 h
[18] = Caco-2, 48 h, Caco-2, 48 h incubation, read-out: IC50 Caco-2 48 h
[19] = HT-29, HT29, 48 h incubation, read-out: IC50 HT29 48 h
[20] = HepG2, 24 h incubation, read-out: IC50 HepG2 24 h
[21] = HepG2, 48 h incubation, read-out: IC50 HepG2 48 h
[22] = FTC-133, FTC133, 24 h incubation, read-out: IC50 FTC133 24 h
[23] = FTC-133, FTC133, 48 h incubation, read-out: IC50 FTC133 48 h
[24] = 48 h incubation, read-out: IC50 8505C 48 h

| Compound | IC50 [1, 9] | mean percentage of dead Du145 cells (Du145 prostate carcinoma) | IC50 (Du145 prostate carcinoma; [10]) | mean percentage of dead PNT2 cells [2] | IC50 [2, 11] | IC50 [3, 12] | IC50 [4, 13] | IC50 [5, 14] | IC50 [1, 15] | IC50 (Du145 prostate carcinoma; [16]) | IC50 [2, 17] | IC50 [3, 18] | IC50 [4, 19] | IC50 [6, 20] | IC50 [6, 21] | IC50 [7, 22] | IC50 [7, 23] | IC50 [5, 24] | also measured |
| --- | --- | --- | --- | --- | --- | --- | --- | --- | --- | --- | --- | --- | --- | --- | --- | --- | --- | --- | --- |
| COc1cccc2c1C(=O)c1c(O)c3c(c(O)c1C2=O)C[C@@](O)(C(=O)CO)C[C@@H]3O[C@H]1C[C@H](N)[C@H](O)[C@H](C)O1 [Doxorubicin] | > 50 µg/mL | 88.38% | 3.18 µg/mL | 99.21% | 1.38 µg/mL | 3.44 µg/mL | 1.53 µg/mL | > 40 µg/mL | – | – | – | – | – | – | – | – | – | – | times lower activity towards PC3 than towards Du145 (PC3; doxorubicin, PC3 vs Du145): about 20 |
| CCCCCCCCCCCC1=C(O)C(=O)C=C(O)C1=O [Embelin] | 9.27 µg/mL | 61.67% | 8.02 µg/mL | 49.00% | 10.1 µg/mL | 6.12 µg/mL | 24.7 µg/mL | 18.9 µg/mL | 5.24 µg/mL | 4.18 µg/mL | 4.61 µg/mL | 3.37 µg/mL | 13.7 µg/mL | 16 µg/mL | 6.77 µg/mL | 10.5 µg/mL | 6.48 µg/mL | 13.8 µg/mL | IC50 (PC3; castration-resistant prostate cancer cells PC3, read-out: IC50 inhibition of proliferation, PC3): 13.6 µM; IC50 (Du145): 21.3 µM; IC50 in HT29 cells (Sumalatha) (HT29 cells; HT29): 35 µg/mL (≈ 119 µM); IC50 ([8]; 24 h, read-out: IC50 after 24 h (Park et al.)): > 200 µM; IC50 ([8]; 48 h, read-out: IC50 after 48 h (Park et al.)): 91.6 µM |
| CCCCCCCCCCCCCC1=C(O)C(=O)C=C(O)C1=O [Rapanone] | 6.5 µg/mL | 82.33% | 7.68 µg/mL | 9.30% | 16.7 µg/mL | 8.76 µg/mL | 16.9 µg/mL | 7.84 µg/mL | 4.92 µg/mL | 5.07 µg/mL | 12.7 µg/mL | 5.66 µg/mL | 11.7 µg/mL | 36.3 µg/mL | 16.7 µg/mL | 6.01 µg/mL | 4.42 µg/mL | 5.5 µg/mL | IC50 Caco-2 24 h ([3]; Caco-2, 24 h incubation): 8.79 µg/mL; IC50 reported by Cordero et al., converted (HT29 cells; HT29 (by context), 29.4 μM converted to μg/mL): 9.3 µg/mL (≈ 28.8 µM); IC50 (HT29 cells; HT29 (by context), read-out: IC50 reported by Cordero et al.): 29.4 µM |

Source: PMC9693145, “Optimization of Extraction Conditions and Cytotoxic Activity of Rapanone in Comparison to Its Homologue, Embelin” (Molecules, 2022)
